Each structure is given as a SMILES string. Where two headings read alike, the source gives them in different places.

This is an account of results in PMC6981454, “Promising 2,6,9-Trisubstituted Purine Derivatives for Anticancer Compounds: Synthesis, 3D-QSAR, and Preliminary Biological Assays” (International Journal of Molecular Sciences, 2019).

One data set relates to CFPAC-1. The data set is described as follows: MTT cytotoxicity assay, 72 h. In kind it is cell-based, human. Conditions: Homo sapiens, CFPAC-1, IC50 ± SD. The procedure: (§1) In our study, the human cancer cell lines used were CFAPC- 1 (pancreatic adenocarcinoma); NCI-H460 (large cell lung); HL-60 (acute promyelocytic leukaemia); CACO2 (colorectal adenocarcinoma); HCT-116 (colorectal carcinoma); K562 (chronic myeloid leukaemia); MCF-7 (breast adenocarcinoma); and MRC-5 control cells (normal fibroblasts).
(§2) CFAPC-1, NCI-H460 H1975, HL-60, HCT-116, CACO2, K562, MCF-7, and MCR-5 were grown and maintained in RPMI 1640 and DMEM F12 as appropriate with 10% fetal bovine serum, 100 UI/mL penicillin–streptomycin, and cultured al 37 °C in 5% CO2 humidified atmosphere. Control cultures were treated with dimethyl sulfoxide (1%) alone at the same concentration as in the purine derivatives treatment. Cell viability was determined by trypan blue dye exclusion. Cell numbers were counted in hemocytometer by light microscopy.
(§3) Cytotoxicity assays were performed by using the MTT reduction method as described in the literature. Briefly, cancer cell lines were plated in a flat-bottom 96-wells plate at 1 × 10^4 cells per well density. Then, the cells were incubated with synthetized compounds at different concentrations (from 0.1 to 100 µM) in 200 µL of 10% fetal bovine serum-RPMI or EMEM culture medium at 37 °C for 72 h. Then, 10 µL of MTT was added at a final concentration of 0.5 mg/mL, incubated at 37 °C for 4 h, and then solubilized with 10% sodium dodecyl sulphate (SDS) in 0.1 mM HCl and incubated overnight at 37 °C. Formazan formation was measured at 570 nm in a multi-well reader (StatFax 4200).
A general note: Tetrazolium assays rely on reduction of a dye to a coloured formazan, in cell work by metabolically active cells.

The subject of a further data set is HCT-116. Description: MTT cytotoxicity assay, 72 h. Format: cell-based, human. Conditions: Homo sapiens, HCT-116, IC50 ± SD. The procedure: as §1, §2, §3
Another data set deals with HL-60. The data set is described as follows: MTT cytotoxicity assay, 72 h. The note with it: for IC50: Homo sapiens; for Selectivity Index (SI) MRC-5/HL-60: IC50 in MRC-5 / IC50 in HL-60. Format: cell-based, human. The procedure: as §1, §2, §3
The test system of a further data set is K562. Description: MTT cytotoxicity assay, 72 h. In kind it is cell-based, human. Conditions: for IC50: MTT, 72 h, IC50 ± SD; for Selectivity Index (SI) MRC-5/K562: IC50 in MRC-5 / IC50 in K562. The protocol:
as §1, §2, §3

In the next data set the test system is MCF-7. The data set is described as follows: MTT cytotoxicity assay, 72 h. In kind it is cell-based, human. The note with it: for IC50: Homo sapiens, MCF7, 72 h, MTT, 72 h, IC50 ± SD; for Selectivity Index (SI) MRC-5/MCF-7: IC50 in MRC-5 / IC50 in MCF-7. The procedure:
as §1, §2, §3

Another data set concerns NCI-H460. The data set is described as follows: MTT cytotoxicity assay, 72 h. Format: cell-based, human. The note with it: for Selectivity Index (SI) MRC-5/NCI-H460: IC50 in MRC-5 / IC50 in NCI-H460. The procedure: as §1, §2, §3
For a further data set, the system named is CACO2. Description: MTT cytotoxicity assay, 72 h. Format: cell-based, human. The note with it: Homo sapiens, Caco-2, IC50 ± SD.
The next data set relates to MRC-5. Description: MTT cytotoxicity assay, 72 h, normal control cells. In kind it is cell-based, human. The note with it: Homo sapiens, MRC5, IC50 ± SD, normal fibroblasts. The procedure:
as §1, §2, §3

The subject of a further data set is HL-60 cells. The data set is described as follows: Cell viability by propidium iodide flow cytometry. In kind it is cell-based, human. The note with it: HL-60, 50 μM, 24 h, PI staining. An excerpt:
Next, in order to determinate the cell death type induced by the most promising compounds, we performed a flow cytometry analysis of cell viability in cell line HL-60 treated with the most promising compounds (selected according to their IC50 values and SI). The HL-60 cancer cells were chosen due to their sensitivity to prepared compounds. […] As a preliminary apoptosis filter, propidium iodide (PI) staining was used through flow cytometry analysis which discriminated a population of viable cells impermeable to PI (PI negative) from necrotic cells PI-permeable (PI positive) and apoptotic cells (the difference of the previous two). The results are shown in Figure 7, illustrating that all purine derivatives tested induced apoptosis on HL-60 cells. Around 40% of apoptotic cells were detected in a culture treated with compounds 7a and 7i, 30% by 7e, 7g, and 7h and 70% by 7d and 7j. […] (For dot plots, see Supplementary Information Figures S1–S3.)
Cell viability was analyzed by flow cytometry as previously described. In this assay, after setting the baseline to exclude cell debris, cells impermeable to propidium iodide (PI negative) are considered as viable. Two populations of PI-permeable dead cells are distinguished based on fluorescence intensity, corresponding to either hypodiploid apoptotic cells or necrotic cells with intact DNA. Here, HL60 cells were incubated with concentrations of 50 µM of each compound for 24 h at 37 °C. Cells were harvested and stained with 10 µg/mL of propidium iodide to determine cell viability. Samples containing roughly 1 × 10^4 cells were evaluated by flow cytometry (FACScanto II; Becton Dickinson, Mountain View, CA) and analyzed using FCS Express v6 software. Three independent biological replicates were performed.
A general note: A flow cytometer gives signals particle by particle.

Another data set concerns pERK1/2. The data set is described as follows: Western blotting of pERK1/2 in MCF-7 cells. In kind it is cell-based, human. Conditions: 10 µM, 1 h. The protocol: Cell lysates were prepared by harvesting cells in Laemmli sample buffer. Proteins were separated on SDS polyacrylamide gels and electroblotted onto nitrocellulose membranes. After blocking, the membranes were incubated with specific primary antibodies overnight, washed, and then incubated with peroxidase-conjugated secondary antibodies. Finally, peroxidase activity was detected with SuperSignal West Pico reagents (Thermo Scientific, Waltham, MA, USA) using a CCD camera LAS-4000 (Fujifilm). Specific antibodies were purchased from Sigma-Aldrich (anti-α-tubulin, clone DM1A; peroxidase-labeled secondary antibodies) and Cell Signaling (anti-PARP, clone 46D11; anti-ERK1/2; anti-phospho-ERK1/2 T202/Y204).
For orientation: A western blot detects proteins with antibodies after separation by electrophoresis.

The subject of a further data set is MCF7 cells. Description: Cell cycle distribution of MCF7 cells. Format: cell-based, human. Conditions: Figure S5.
A further data set relates to cancer cell lines. The note with it: cited from earlier work.
Another data set has as its system p53. The data set is described as follows: p53-dependent transcriptional activity reporter assay (β-galactosidase) in Arn-8 cells. In kind it is cell-based, human. The note with it: Arn-8 cells, 24 h incubation, Table S3, control compound. The procedure:
Table S3. Results of p53 activity of compounds 4a-u and 7a-j.
Compound fold p53 activity […]
p53-dependent transcriptional activity
To measure p53-dependent transcriptional activity, -galactosidase activity was determined in the human melanoma cell line Arn-8, stably transfected with a p53-responsive reporter construct pRGC foslacZ as described before. After 24 h incubation with the inhibitors, the cells were permeabilized with 0.3% Triton X-100 for 15 min, and then 4-methylumbelliferon-ß-D-galactopyranoside was added as a substrate to a final concentration of 80 µM. […]
fluorescence was measured at 355/460 nm (ex/em) with a Fluoroskan Ascent microplate reader […]
Figure S6. Dose-response effect of roscovitine on p53 activity in ARN8 cells (control experiment).
(1 picture or pasted object on this page, not shown here)

The target in data set [1] is Hedgehog (Hh) signaling pathway. More on the design: method as in PMID 24923765. Conditions: cited from earlier work.
[2] abbreviates: HL-60, 72 h, MTT, 72 h, IC50 ± SD, read-out: IC50 HL-60.
[3] abbreviates: HL-60, -logIC50 in molar concentration, Table S1, read-out: Experimental pIC50 (HL-60) (converted).
[4] abbreviates: Homo sapiens, NCI-H460, 72 h, MTT, 72 h, IC50 ± SD, read-out: IC50 NCI-H460.
Where [5] appears, read: Homo sapiens, NCI-H460, -logIC50 in molar concentration, Table S2, read-out: Experimental pIC50 (NCI-H460) (converted).
Where [6] appears, read: MTT, 72 h, IC50 ± SD, read-out: IC50 NCI-H460.

Method for CACO2: Cytotoxicity assays were performed by using the MTT reduction method as described in the literature [23, 37]. Briefly, cancer cell lines were plated in a flat-bottom 96-wells plate at 1 × 10^4 cells per well density. Then, the cells were incubated with synthetized compounds at different concentrations (from 0.1 to 100 µM) in 200 µL of 10% fetal bovine serum-RPMI or EMEM culture medium at 37 °C for 72 h. Then, 10 µL of MTT was added at a final concentration of 0.5 mg/mL, incubated at 37 °C for 4 h, and then solubilized with 10% sodium dodecyl sulphate (SDS) in 0.1 mM HCl and incubated overnight at 37 °C. Formazan formation was measured at 570 nm in a multi-well reader (StatFax 4200).

Take `FC(F)(F)c1ccc(N2CCN(c3nc(Cl)nc4c3ncn4C3CCCC3)CC2)nc1` [7c, 2-Chloro-9-cyclopentyl-6-(4-(5-(trifluoromethyl)pyridin-2-yl)piperazin-1-yl)-9H-purine]: the melting point – broadly, the temperature, or range, at which the solid turns liquid – was 160 to 162 °C. The same molecule displayed an IC50 in the data set on CFPAC-1 above 100 µM. The same molecule gave an IC50 in the data set on HCT-116 above 50 µM. The IC50 in the data set on HL-60 (setting [2]) amounted to 17 ± 2.3 µM. Further, in the data set with HL-60 (setting [3]), the IC50 was 17 µM. Moreover, in the data set on HL-60, the “Selectivity Index (SI) MRC-5/HL-60” value is reported as 3.3. This molecule also returned an IC50 with K562 (Homo sapiens, K562, 72 h) of 400 to 1500 nM. In addition, in the data set with K562, the “Selectivity Index (SI) MRC-5/K562” value stood at 143.6 and the IC50 amounted to 390 ± 30 nM. Besides, in the data set on MCF-7, the IC50 is 520 ± 50 nM and the “Selectivity Index (SI) MRC-5/MCF-7” value was determined as 107.7. In the data set with NCI-H460 (setting [4]), the IC50 was 4.8 µM. The IC50 in the data set with NCI-H460 (setting [5]) was 4.79 µM. The “Selectivity Index (SI) MRC-5/NCI-H460” value in the data set with NCI-H460 was found to be 11.7. In the data set with NCI-H460 (setting [6]), the IC50 turned out to be 4.79 ± 0.07 µM. In the data set on CACO2, this molecule had an IC50 above 100 µM. Besides, the IC50 in the data set on MRC-5 was determined as 56 ± 1 µM.
Turning to `Clc1ccc(N2CCN(c3nc(Cl)nc4c3ncn4C3CCCC3)CC2)cc1` [7g, 2-Chloro-6-(4-(4-chlorophenyl)piperazin-1-yl)-9-cyclopentyl-9H-purine], the IC50 with CFPAC-1 is above 100 µM; in the data set with HCT-116 it was above 50 µM; with HL-60 (setting [2]), 0.3 ± 0.06 µM; in the data set with HL-60 (setting [3]), 0.3 µM; in the data set on K562 (Homo sapiens, K562, 72 h) it was 710 ± 70 nM; with MCF-7, 970 ± 70 nM. The IC50 with NCI-H460 (setting [4]) was 2.2 µM; in the data set on NCI-H460 (setting [5]), 2.21 µM; in the data set on NCI-H460 (setting [6]) it was 2.21 ± 0.03 µM; with CACO2, above 100 µM; in the data set on MRC-5 it was 2.54 ± 0.17 µM. In addition, the “Selectivity Index (SI) MRC-5/HL-60” value in the data set with HL-60 is recorded as 8.5. For the same molecule, the “Selectivity Index (SI) MRC-5/K562” value with K562 is reported as 3.6. For the same molecule, the “Selectivity Index (SI) MRC-5/MCF-7” value in the data set with MCF-7 amounted to 2.6. In addition, in the data set with NCI-H460, the “Selectivity Index (SI) MRC-5/NCI-H460” value was found to be 1.1. In the data set with HL-60 cells, the apoptotic cells is given as around 30%. The “level of mitogenic transducer pERK1/2” value in the data set on pERK1/2 is given as “potently reduced”. In addition, the “population of MCF7 cells in the G1-phase” value with MCF7 cells is listed as “slightly increased”.
With `OC[C@H]1O[C@@H](n2cnc3c(N4CCN(c5ccc(C(F)(F)F)cc5)CC4)nc(Cl)nc32)[C@H](O)[C@@H]1O` [II], the “IC50 on some cancer cell lines” value in the data set with cancer cell lines is “sub-micromolar”.
As to `FC(F)(F)c1ccc(N2CCN(c3ncnc4c3ncn4C3CCCC3)CC2)cc1` [I], the “IC50 on some cancer cell lines” value with cancer cell lines is “sub-micromolar”.
`CC[C@H](CO)Nc1nc(NCc2ccccc2)c2ncn(C(C)C)c2n1` [Roscovitine, reference compound]: in the data set with p53, the “fold p53 activity” value turned out to be 33.9.
On to `CCNCc1ccc(C)c(NC(=O)c2ccc(Nc3nc(-c4ccc(OC(F)(F)F)cc4)c4ncn(C)c4n3)cc2)c1` [V], for which, in data set [1], the “IC50 in Gli-luciferase reporter assay” value was “nanomolar scale”.
